Article PMC4235525, “Anticancer Properties of Novel Rhenium Pentylcarbanato Compounds against MDA-MB-468(HTB-132) Triple Node Negative Human Breast Cancer Cell Lines” (British journal of pharmaceutical research, 2015)

Columns and labels:
[1] = tested on: MDA-MB-468 (HTB-132) triple node negative breast cancer cell lines; experiment: Trypan blue cytotoxicity assay, 48 h treatment; assay type: cell-based, human; details: drugs in DMSO, read-out: IC-50 (mean ± S.D.), concentration required to have 50% cell-growth inhibition, Breast Cancer HTB-132 cell lines
Procedure: MDA-MB-468 (HTB-132) triple node negative breast cancer cell lineswere obtained from ATCC (USA), cultured inL-15 medium supplemented with 10% Fetal Bovine Serum(FBS), penicillin and streptomycin antibiotics and grownat 37°C inan incubator. The mouse glomerular mesangialcell line was a kind gift from Dr. C. Reilly of Virginia Tech University, USA. These cells were cultured in RPMI-1640 medium supplemented with 10%FBS, penicillin and streptomycin antibiotics and grown at 37°C in a carbon dioxide incubator.
HTB-132 breast cancer cell lines were grown in six well plates to confluency, the cells were then kept in serum-free medium overnight and then treated with each of drugsPC1-6 (dissolved in DMSO) along with untreated cells and DMSO vehicular control for 48 hours. […] Atrypan blue assay was done to measure cell viability using a standard hemocytometer and light microscope.
Each experiment was repeated three times and statistical t test was used to analyze the results with P<0.05.

[2] = tested on: Balb/c mouse kidney (mouse glomerular mesangial) cell line; experiment: Trypan blue cytotoxicity (nephrotoxicity) in mouse kidney cells; assay type: cell-based; details: 48 hours, trypan blue assay, drugs in DMSO; read-out: IC-50 (mean ± S.D.), concentration required to have 50% cell-growth inhibition, Mouse Mesangial cell lines
Procedure: Aim To study the efficacy of novel rhenium compounds to treat triple node negative breast cancer. Place and Duration Six (6) novel rhenium pentycarbanato compounds (PC1-6) were synthesized and triple node negative breast cancer cell lines HTB-132 and Balb/c mouse kidney cell lines were treated with each of them for 48 hours. The results were analyzed by a common trypan blue cell death assay system and statistically analyzed. Place and Duration The compounds were synthesized, analyzed and evaluated at the Department of Chemistryof Morgan State University, Baltimore, Maryland and the Pharmaceutical Sciences Department of Elizabeth City State University campus of the University of North Carolina system. Methodology The novel rhenium compounds were synthesized from one-pot reactions of Re2(CO)10 with the corresponding α-diimine ligands in 1-pentanol.The compounds were characterized spectroscopically. The cell lines were cultured by standard cell culture procedure and treated with each of the six compounds in DMSO for 48 hours with a negative control and a DMSO vehicular control along with a cisplatin positive control.The cytotoxicity was evaluated by standard trypan blue assay and the results were statistically analyzed. […] Conclusion The novel rhenium compounds PC 1-6 can potentially find applications in the treatment of highly malignant triple node negative breast cancer. […]

cis-[Pt (NH3)2Cl2] [Cisplatin]
IC50 [1]: 5000 ± 2500 nM | IC50 [2]: 1000 ± 2500 nM
